For one data set, the target named is Acetylcholinesterase (Homo sapiens, UniProt P22303).
In a further data set the target is Cholinesterase (Homo sapiens, UniProt P06276).
The nature of data set [1]: Safety index is the ratio of acute lethality LD50 to extracellular AchE ED50. To be noted: read-out: Safety index. The data set is classed as toxicity.
Data set [2] is filed under the species Rattus norvegicus. In words: animal or person. Particulars: 3 h.
Data set [3] is filed under the species Rattus norvegicus. The experiment in a line: animal or person.
Description: ED50 for salivation was defined as the dose required to produce a level 2 rating on a 0-4 point scale after treatment.

Each structure is given as a SMILES string.

Data on six compounds can be found in ChEMBL document CHEMBL1128477, “5,7-dihydro-3-[2-[1-(phenylmethyl)-4-piperidinyl]ethyl]-6H- pyrrolo[3,2-f]-1,2-benzisoxazol-6-one: a potent and centrally-selective inhibitor of acetylcholinesterase with an improved margin of safety” (J Med Chem, 1995).

By IC50 is commonly meant the concentration that gives 50% inhibition. The LD50 is the dose expected to kill half of the subjects tested. A high value points to a less toxic substance. Broadly, the ED50 is the midpoint of the dose-response relation. Low readings indicate an effect at a small dose, high ones a need for a large dose.

Acetylcholinesterase, sequence (P22303 whole entry): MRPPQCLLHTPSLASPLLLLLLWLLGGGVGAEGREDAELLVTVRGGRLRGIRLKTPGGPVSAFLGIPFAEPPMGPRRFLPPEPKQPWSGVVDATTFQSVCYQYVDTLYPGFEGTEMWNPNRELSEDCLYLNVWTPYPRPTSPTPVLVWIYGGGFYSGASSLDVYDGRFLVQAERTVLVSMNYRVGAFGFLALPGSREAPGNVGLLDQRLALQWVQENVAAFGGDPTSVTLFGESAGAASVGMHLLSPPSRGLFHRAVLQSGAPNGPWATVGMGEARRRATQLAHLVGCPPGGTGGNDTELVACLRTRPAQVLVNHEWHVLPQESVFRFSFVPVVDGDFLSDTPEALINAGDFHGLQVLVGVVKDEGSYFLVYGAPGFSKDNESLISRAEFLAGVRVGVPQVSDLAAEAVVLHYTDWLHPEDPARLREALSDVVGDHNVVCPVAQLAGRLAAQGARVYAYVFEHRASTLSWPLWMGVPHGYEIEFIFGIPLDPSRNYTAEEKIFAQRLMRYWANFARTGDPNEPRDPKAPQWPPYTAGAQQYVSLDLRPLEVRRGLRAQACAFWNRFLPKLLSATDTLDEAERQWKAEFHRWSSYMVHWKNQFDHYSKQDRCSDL
Cholinesterase, sequence (P06276 whole entry): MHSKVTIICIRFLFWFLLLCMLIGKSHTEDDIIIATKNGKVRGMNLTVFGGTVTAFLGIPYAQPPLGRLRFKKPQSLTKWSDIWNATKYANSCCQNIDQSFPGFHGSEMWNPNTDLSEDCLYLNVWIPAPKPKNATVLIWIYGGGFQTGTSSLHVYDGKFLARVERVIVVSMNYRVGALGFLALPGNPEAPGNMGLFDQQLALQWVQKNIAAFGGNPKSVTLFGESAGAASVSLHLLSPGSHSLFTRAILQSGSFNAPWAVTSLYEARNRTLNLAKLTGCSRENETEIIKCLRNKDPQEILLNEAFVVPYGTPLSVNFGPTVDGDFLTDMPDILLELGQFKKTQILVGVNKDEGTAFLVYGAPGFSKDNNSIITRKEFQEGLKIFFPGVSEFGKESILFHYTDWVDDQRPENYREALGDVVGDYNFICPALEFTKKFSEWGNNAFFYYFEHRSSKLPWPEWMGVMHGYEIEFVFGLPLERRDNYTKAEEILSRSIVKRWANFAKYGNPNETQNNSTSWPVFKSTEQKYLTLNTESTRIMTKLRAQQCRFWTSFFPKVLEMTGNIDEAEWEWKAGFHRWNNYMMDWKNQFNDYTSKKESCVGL
Description for Acetylcholinesterase: In vitro inhibition of Acetylcholinesterase from human erythrocytes
Description for in vivo: LD50 for actute lethality is defined as the dose that resulted in the death of 50% of the animals 1 hr after treatment.

Consider `O=C1Cc2cc3onc(CCC4CCN(Cc5ccccc5)CC4)c3cc2N1`, for which the IC50 against Acetylcholinesterase was determined as 0.95 nM; against Cholinesterase, 3900 nM.
For the compound `O=C1CCc2cc3c(CCC4CCN(Cc5ccccc5)CC4)noc3cc2N1`, the values for the half-maximal inhibitory concentration (IC50) against Acetylcholinesterase and against Cholinesterase were 0.57 nM and 4000 nM, respectively.
`CC(=O)Nc1ccc2c(CCC3CCN(Cc4ccccc4)CC3)noc2c1`: at Cholinesterase, the IC50 came to 9000 nM.
Turning to `CN1C(=O)Cc2cc3c(CCC4CCN(Cc5ccccc5)CC4)noc3cc21`, the half-maximal inhibitory concentration (IC50) on Acetylcholinesterase came to 0.48 nM; on Cholinesterase it was 4500 nM.
The matching figures for `O=C1Cc2c(ccc3c(CCC4CCN(Cc5ccccc5)CC4)noc23)N1`: 3.6 nM and 2200 nM.
As for `O=C(O)/C=C\C(=O)O.O=C1Cc2cc3c(CCC4CCN(Cc5ccccc5)CC4)noc3cc2N1` [ICOPEZIL MALEATE], the selectivity ratio in data set [1] amounted to 105. Further, the values for the IC50 against Acetylcholinesterase and at Cholinesterase were 0.33 nM and 7200 nM, respectively. The compound further had an LD50 at 1 h in “in vivo” of 42 mg/kg. The ED50 in the data set listed under Rattus norvegicus [2] turned out to be 0.4 mg/kg; in the data set listed under Rattus norvegicus [3], 26 mg/kg.
